# Measured values taken from US20110319392A1, “Thiazole Sulfonamide And Oxazole Sulfonamide Kinase Inhibitors” (priority 2009, published 2011).
# Tests used:
# EGFR = target: T1, EGFR (Homo sapiens, UniProt P00533); experiment: EGFR substrate phosphorylation assay (HTRF); type: biochemical
# T1 construct: made in house; host or cells: baculovirus expression system
# How it was run: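 Baculovirus-expressed EGFR (0.8 nM) or ErbB2 (10 nM) in enzyme mix, preincubated 1 h at 20 °C with compound (0.00027–47.6 μM final), then 90 min at 20 °C with substrate mix of 20 μM ATP, 0.8 uM biotinylated Peptide C, MnCl2, MOPS pH 7.5. Phosphotyrosine by HTRF; pIC50 reported.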
# HN5 tumor cells = experiment: Cell growth inhibition assay (CellTiter-Glo), HN5; type: cell-based, Human; settings: Homo sapiens, 72 h; 3 days incubation
# How it was run: (§1)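 Cells plated at 500 cells/well in their growth media, dosed next day with nine-step 1:3 compound dilutions (final DMSO 0.2%), then incubated 3 days at 37° C, 5% CO2. Total ATP read by CellTiter-Glo luminescence as a surrogate for cell number; IC50 interpolated from 4-parameter fit versus DMSO controls.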
# BT474 tumor cells = experiment: Cell growth inhibition assay (CellTiter-Glo), BT474; type: cell-based, Human; settings: Homo sapiens, BT-474, 72 h, 3 days incubation
# SK-MEL-3 tumor cells = experiment: Cell growth inhibition assay (CellTiter-Glo), SK-MEL-3; type: cell-based, Human; settings: for IC50: Homo sapiens, SK-MEL3
# How it was run: as §1
# T1 sequence (P00533 25-1210): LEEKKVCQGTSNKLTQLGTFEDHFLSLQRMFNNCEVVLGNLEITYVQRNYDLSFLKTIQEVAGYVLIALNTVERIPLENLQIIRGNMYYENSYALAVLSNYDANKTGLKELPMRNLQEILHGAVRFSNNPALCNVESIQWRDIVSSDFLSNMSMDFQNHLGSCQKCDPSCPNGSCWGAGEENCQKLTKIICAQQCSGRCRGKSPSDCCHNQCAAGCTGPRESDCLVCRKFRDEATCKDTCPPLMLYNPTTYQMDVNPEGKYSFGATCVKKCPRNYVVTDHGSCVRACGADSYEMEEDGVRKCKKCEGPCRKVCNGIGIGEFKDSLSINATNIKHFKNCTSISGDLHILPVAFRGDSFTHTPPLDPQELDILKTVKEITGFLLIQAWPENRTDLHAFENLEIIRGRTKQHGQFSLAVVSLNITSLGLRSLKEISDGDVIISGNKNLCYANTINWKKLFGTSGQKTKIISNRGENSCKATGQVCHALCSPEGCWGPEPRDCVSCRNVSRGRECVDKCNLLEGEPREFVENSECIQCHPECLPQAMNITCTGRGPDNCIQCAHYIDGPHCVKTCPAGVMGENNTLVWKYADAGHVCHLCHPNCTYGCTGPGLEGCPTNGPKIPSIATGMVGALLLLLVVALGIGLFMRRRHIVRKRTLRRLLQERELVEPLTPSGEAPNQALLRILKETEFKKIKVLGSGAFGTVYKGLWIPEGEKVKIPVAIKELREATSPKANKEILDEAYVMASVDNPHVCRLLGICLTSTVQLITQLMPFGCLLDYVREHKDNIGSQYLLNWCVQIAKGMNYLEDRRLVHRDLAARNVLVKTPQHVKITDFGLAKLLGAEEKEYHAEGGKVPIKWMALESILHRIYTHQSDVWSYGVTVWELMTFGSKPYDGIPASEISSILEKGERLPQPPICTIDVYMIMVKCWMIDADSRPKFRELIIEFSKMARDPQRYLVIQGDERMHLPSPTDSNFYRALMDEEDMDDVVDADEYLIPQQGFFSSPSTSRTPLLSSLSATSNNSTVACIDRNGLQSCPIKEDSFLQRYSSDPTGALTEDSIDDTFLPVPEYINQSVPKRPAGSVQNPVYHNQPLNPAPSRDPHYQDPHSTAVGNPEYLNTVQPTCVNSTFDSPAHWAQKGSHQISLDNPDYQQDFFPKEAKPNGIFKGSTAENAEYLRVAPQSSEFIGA
SMILES,IC50 (EGFR) [µM],IC50 (HN5 tumor cells) [µM],IC50 (BT474 tumor cells) [µM],IC50 (SK-MEL-3 tumor cells) [µM],Activity in SK-MEL-3 Tumor Cells (SK-MEL-3 tumor cells)
"CC(C)c1nc(-c2cc(F)c(F)c(NS(=O)(=O)c3cccc(F)c3)c2)c(-c2ccnc(Nc3cnc(N4CCOCC4)c(F)c3)n2)s1 [Example 31, N-{2,3-Difluoro-5-[5-(2-{[5-fluoro-6-(4-morpholinyl)-3-pyridinyl]amino}-4-pyrimidinyl)-2-(1-methylethyl)-1,3-thiazol-4-yl]phenyl}-3-fluorobenzenesulfonamide]",> 1,> 1,> 1,0.1 to 1,
CC(C)c1nc(-c2cccc(NS(=O)(=O)c3c(F)cccc3F)c2F)c(-c2ccnc(Nc3ccc(N4CCOCC4)nc3)n2)s1 [Example 123],> 1,0.1 to 1,> 1,< 0.1,
O=S(=O)(Nc1cccc(-c2nc(N3CCCCC3)sc2-c2ccnc(Nc3ccc(N4CCOCC4)nc3)n2)c1)c1c(F)cccc1F [Example 151],> 1,0.1 to 1,> 1,< 0.1,
CC(C)c1nc(-c2ccc(F)c(NS(=O)(=O)c3ccccc3C#N)c2)c(-c2ccnc(Nc3ccc(N4CCOCC4)nc3)n2)s1 [Example 107],0.1 to 1,> 1,> 1,0.1 to 1,
"CC(C)c1nc(-c2cccc(NS(=O)(=O)c3c(F)cccc3F)c2)c(-c2ccnc(Nc3ccc(N4CCOCC4)c(C(=O)O)c3)n2)s1 [Example 14, 5-({4-[4-(3-{[(2,6-Difluorophenyl)sulfonyl]amino}phenyl)-2-(1-methylethyl)-1,3-thiazol-5-yl]-2-pyrimidinyl}amino)-2-(4-morpholinyl)benzoic acid]",0.1 to 1,> 1,> 1,< 0.1,
"CC(C)c1nc(-c2ccnc(NS(=O)(=O)c3c(F)cccc3F)c2)c(-c2ccnc(Nc3ccc(N4CCOCC4)nc3)n2)s1 [Example 32, 2,6-Difluoro-N-{4-[2-(1-methylethyl)-5-(2-{[6-(4-morpholinyl}-3-pyridinyl]amino}-4-pyrimidinyl)-1,3-thiazol-4-yl]-2-pyridinyl}benzenesulfonamide]",> 1,> 1,> 1,< 0.1,
CC(C)c1nc(-c2ccc(F)c(NS(=O)(=O)c3c(F)cccc3F)c2)c(-c2ccnc(Nc3ccc(N4CCN5CCOC[C@H]5C4)nc3)n2)s1 [Example 97],0.1 to 1,> 1,> 1,< 0.1,
CCc1nc(-c2cccc(CNS(=O)(=O)c3ccccc3)c2)c(-c2ccnc(Nc3ccc(N4CCOCC4)c(F)c3)n2)s1 [Example 34],> 1,> 1,> 1,,+ (activity of >1 μM in SK-MEL-3 tumor cells)
O=S(=O)(Nc1cccc(-c2ncsc2-c2ccnc(Nc3ccc(N4CCOCC4)nc3)n2)c1)c1c(F)cccc1F [Example 162],0.1 to 1,0.1 to 1,> 1,< 0.1,
CC(C)c1nc(-c2cc(F)c(F)c(NS(=O)(=O)c3cccc(F)c3)c2)c(-c2ccnc(Nc3ccc(N4CCN(CCF)CC4)c(F)c3)n2)s1 [Example 101],> 1,0.1 to 1,> 1,0.1 to 1,
"CC(C)c1nc(-c2cccc(NS(=O)(=O)c3c(F)cccc3F)c2F)c(-c2ccnc(Nc3ccc(N4CCN(CCF)CC4)c(F)c3)n2)s1 [Example 29, 2,6-Difluoro-N-{2-fluoro-3-[5-[2-({3-fluoro-4-[4-(2-fluoroethyl)-1-piperazinyl]phenyl}amino)-4-pyrimidinyl]-2-(1-methylethyl)-1,3-thiazol-4-yl]phenyl}benzenesulfonamide]",> 1,0.1 to 1,> 1,< 0.1,
"CC(=O)N1CCN(c2ccc(Nc3nccc(-c4sc(C(C)C)nc4-c4cccc(NS(=O)(=O)c5ccccc5F)c4)n3)cn2)CC1 [Example 12, N-{3-[5-(2-{[6-(4-Acetyl-1-piperazinyl)-3-pyridinyl]amino}-4-pyrimidinyl)-2-(1-methylethyl)-1,3-thiazol-4-yl]phenyl}-2-fluorobenzenesulfonamide]",< 0.1,0.1 to 1,> 1,< 0.1,
CC(C)c1nc(-c2cccc(NS(=O)(=O)c3c(F)cccc3F)c2)c(-c2ccnc(Nc3ccc(N4CCN5CCOC[C@H]5C4)nc3)n2)s1 [Example 15],0.1 to 1,0.1 to 1,> 1,< 0.1,
COc1ccc(S(=O)(=O)Nc2cccc(-c3nc(C(C)C)sc3-c3ccnc(Nc4ccc(N5CCOCC5)nc4)n3)c2)cn1 [Example 49],> 1,> 1,> 1,< 0.1,
